Test [1] has as its target PIK3CA (human) (UniProt P42336). The experiment in a line: Inhibition of PIK3CA Kinase Activity (FP Assay).
Another test has as its target PIK3CG (human) (UniProt P48736). The experiment in a line: Inhibition of PIK3CG Kinase Activity.
The next test concerns the target CDK2 (human) (UniProt P24941).
For test [2], the target named is MAPK14 (UniProt Q16539). In words: Inhibition of MAPK14 Kinase Activity (Binding Assay).
Test [3] concerns the target MAPK14 (UniProt Q16539). In words: Inhibition of MAPK14 Kinase Activity (Spectrophometric Assay).
The target of test [4] is CDK2 (UniProt P24941). The experiment in a line: Enzyme Assay.
Test [5] addresses EGFR (UniProt P00533).
The target of test [6] is EGFR (human) (UniProt P00533). Conditions: kb.
Chain of EGFR (human) (P00533 whole entry, looked up): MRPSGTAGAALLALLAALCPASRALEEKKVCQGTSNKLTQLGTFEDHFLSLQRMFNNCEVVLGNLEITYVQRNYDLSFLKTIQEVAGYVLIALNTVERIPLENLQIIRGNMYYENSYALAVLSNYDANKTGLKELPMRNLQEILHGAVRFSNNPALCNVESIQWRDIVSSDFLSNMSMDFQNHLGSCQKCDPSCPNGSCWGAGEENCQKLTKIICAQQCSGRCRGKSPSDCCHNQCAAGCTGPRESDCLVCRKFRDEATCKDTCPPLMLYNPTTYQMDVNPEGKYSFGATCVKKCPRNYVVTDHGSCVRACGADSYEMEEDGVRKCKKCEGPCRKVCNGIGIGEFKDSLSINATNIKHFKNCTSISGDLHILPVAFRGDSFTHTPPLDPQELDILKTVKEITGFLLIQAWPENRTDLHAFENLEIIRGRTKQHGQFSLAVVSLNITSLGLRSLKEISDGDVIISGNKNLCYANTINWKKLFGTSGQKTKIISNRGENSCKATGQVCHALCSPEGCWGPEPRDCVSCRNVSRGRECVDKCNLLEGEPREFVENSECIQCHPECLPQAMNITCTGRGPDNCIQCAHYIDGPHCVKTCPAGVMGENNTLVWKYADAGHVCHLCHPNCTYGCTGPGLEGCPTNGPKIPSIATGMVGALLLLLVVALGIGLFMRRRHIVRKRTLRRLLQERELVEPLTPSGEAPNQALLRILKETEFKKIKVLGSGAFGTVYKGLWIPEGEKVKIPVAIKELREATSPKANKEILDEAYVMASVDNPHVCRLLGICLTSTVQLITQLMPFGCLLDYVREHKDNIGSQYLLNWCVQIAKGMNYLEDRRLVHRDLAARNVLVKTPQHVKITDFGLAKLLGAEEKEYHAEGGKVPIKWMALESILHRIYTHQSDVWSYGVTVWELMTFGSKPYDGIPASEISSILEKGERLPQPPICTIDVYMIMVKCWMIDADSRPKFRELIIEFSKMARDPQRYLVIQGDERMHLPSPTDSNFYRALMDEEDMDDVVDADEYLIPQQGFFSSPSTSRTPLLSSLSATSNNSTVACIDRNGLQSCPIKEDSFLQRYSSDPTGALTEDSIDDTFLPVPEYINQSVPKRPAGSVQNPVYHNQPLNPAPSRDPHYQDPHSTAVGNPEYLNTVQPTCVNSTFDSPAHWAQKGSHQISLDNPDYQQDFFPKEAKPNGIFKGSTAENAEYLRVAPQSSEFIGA
For test [7], the target named is PIK3CA (human), P42336 [Assessment of PIK3CA (Mutant) Kinase Activity in MCF-7.1 Cell Line]. In words: Assessment of PIK3CA (Mutant) Kinase Activity in MCF-7.1 Cell Line. As to conditions: mcf-7.
Chain of PIK3CA (human), P42336 [Assessment of PIK3CA (Mutant) Kinase Activity in MCF-7.1 Cell Line] (P42336 whole entry, looked up, change not shown): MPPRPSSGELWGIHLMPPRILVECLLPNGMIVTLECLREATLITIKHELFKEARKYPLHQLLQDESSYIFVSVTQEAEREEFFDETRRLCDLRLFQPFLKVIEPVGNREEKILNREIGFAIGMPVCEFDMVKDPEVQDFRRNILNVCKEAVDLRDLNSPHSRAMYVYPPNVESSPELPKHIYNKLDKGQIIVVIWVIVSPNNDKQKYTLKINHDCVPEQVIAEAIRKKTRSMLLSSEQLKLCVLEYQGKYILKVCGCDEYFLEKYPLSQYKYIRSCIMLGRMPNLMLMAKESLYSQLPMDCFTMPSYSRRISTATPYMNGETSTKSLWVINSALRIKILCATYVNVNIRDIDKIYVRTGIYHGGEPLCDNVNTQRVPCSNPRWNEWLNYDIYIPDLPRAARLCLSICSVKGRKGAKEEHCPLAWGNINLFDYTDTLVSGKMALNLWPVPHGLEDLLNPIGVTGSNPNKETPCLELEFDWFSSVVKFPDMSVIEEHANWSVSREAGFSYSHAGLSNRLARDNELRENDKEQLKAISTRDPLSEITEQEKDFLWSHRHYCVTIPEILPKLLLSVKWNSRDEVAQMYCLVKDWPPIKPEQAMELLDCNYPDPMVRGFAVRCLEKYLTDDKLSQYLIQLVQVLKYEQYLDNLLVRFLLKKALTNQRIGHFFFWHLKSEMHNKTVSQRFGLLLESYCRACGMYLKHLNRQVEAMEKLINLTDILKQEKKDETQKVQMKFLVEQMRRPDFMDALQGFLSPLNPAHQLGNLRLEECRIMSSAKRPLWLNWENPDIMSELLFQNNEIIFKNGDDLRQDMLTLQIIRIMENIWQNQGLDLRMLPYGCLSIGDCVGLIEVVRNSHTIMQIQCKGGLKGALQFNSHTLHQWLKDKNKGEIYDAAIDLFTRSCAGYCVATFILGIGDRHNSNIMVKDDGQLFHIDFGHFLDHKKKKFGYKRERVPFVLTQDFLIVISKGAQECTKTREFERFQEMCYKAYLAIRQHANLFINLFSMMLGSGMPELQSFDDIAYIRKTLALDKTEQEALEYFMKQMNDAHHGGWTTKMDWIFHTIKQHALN
The target of test [8] is MAPK14 (UniProt Q16539). The experiment in a line: Inhibition of MAPK14 Kinase Activity. As to conditions: for inhibition: concentration not given here.
Another test has as its target ROCK2 (UniProt O75116). The experiment in a line: Inhibition of ROCK-II Kinase Activity. As to conditions: concentration not given here.
For test [9], the target named is EGFR (human) (UniProt P00533). Conditions: hn5.
The target of test [10] is CDK2 (UniProt P24941). The experiment in a line: Enzyme Assay. This is another data set of the same source.
The target in test [11] is EGFR (UniProt P00533). As to conditions: concentration not given here.
Chain of EGFR (P00533 whole entry, looked up): as the sequence (P00533 whole entry, looked up) above
Test [12] has as its target MAPK14 (UniProt Q16539). In words: Inhibition of TNF-alpha Production.
Test [13] deals with EGFR (human) (UniProt P00533).
Test [14] addresses EGFR (human) (UniProt P00533). Conditions: A431.
Test [15] addresses PIK3CA (human) (UniProt P42336). In words: Inhibition of PIK3CA Kinase Activity in HeLa Cells.
The target in test [16] is EGFR (human) (UniProt P00533). The source holds these as a separate data set.
For test [17], the target named is EGFR (human) (UniProt P00533). The source holds these as a separate data set.
Test [18] addresses EGFR (human) (UniProt P00533). As to conditions: hn5. The source holds these as a separate data set.
Test [19] has as its target EGFR (human) (UniProt P00533). Conditions: a431.
Test [20] addresses EGFR (UniProt P00533). This is another data set of the same source.
Test [21] addresses MAPK14 (UniProt Q16539). In words: CSBP binding - Inhibition of Prostaglandin H Synthase Type-1 Enzyme Assay.
Test [22] has as its target MAPK14 (UniProt Q16539). The experiment in a line: CSBP binding - Inhibition of RBL-1 5 Lipoxygenase Enzyme Assay.
The target in test [23] is MAPK14 (human) (UniProt Q16539). The experiment in a line: Inhibition of MAPK14 Kinase Activity.
Chain of MAPK14 (human) (Q16539 whole entry, looked up): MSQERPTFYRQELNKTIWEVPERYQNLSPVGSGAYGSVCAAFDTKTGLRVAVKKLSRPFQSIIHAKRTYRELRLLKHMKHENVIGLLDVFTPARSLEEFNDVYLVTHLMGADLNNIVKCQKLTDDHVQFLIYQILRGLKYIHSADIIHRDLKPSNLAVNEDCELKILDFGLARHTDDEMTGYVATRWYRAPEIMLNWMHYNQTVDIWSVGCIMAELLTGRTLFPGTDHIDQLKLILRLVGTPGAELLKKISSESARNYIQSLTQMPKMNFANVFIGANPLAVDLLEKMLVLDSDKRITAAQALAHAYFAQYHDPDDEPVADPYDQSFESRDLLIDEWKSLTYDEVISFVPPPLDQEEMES
For test [24] the target is unchanged. The experiment in a line: Inhibition of MAPK14 Kinase Activity. The source holds these as a separate data set.
For test [25], the target named is EGFR (UniProt P00533). As to conditions: concentration not given here. This is another data set of the same source.
Test [26] deals with EGFR (human) (UniProt P00533). Conditions: a431. The source holds these as a separate data set.
Test [27] deals with EGFR (human) (UniProt P00533). As to conditions: kb. This is another data set of the same source.
For test [28], the target named is EGFR (human) (UniProt P00533). The source holds these as a separate data set.
Test [29] has as its target EGFR (UniProt P00533). The source holds these as a separate data set.

Chain of PIK3CA (human) (P42336 whole entry, looked up): as the sequence (P42336 whole entry, looked up, change not shown) above
Chain of MAPK14 (Q16539 whole entry, looked up): as the sequence (Q16539 whole entry, looked up) above
Chain of PIK3CG (human) (P48736 whole entry, looked up): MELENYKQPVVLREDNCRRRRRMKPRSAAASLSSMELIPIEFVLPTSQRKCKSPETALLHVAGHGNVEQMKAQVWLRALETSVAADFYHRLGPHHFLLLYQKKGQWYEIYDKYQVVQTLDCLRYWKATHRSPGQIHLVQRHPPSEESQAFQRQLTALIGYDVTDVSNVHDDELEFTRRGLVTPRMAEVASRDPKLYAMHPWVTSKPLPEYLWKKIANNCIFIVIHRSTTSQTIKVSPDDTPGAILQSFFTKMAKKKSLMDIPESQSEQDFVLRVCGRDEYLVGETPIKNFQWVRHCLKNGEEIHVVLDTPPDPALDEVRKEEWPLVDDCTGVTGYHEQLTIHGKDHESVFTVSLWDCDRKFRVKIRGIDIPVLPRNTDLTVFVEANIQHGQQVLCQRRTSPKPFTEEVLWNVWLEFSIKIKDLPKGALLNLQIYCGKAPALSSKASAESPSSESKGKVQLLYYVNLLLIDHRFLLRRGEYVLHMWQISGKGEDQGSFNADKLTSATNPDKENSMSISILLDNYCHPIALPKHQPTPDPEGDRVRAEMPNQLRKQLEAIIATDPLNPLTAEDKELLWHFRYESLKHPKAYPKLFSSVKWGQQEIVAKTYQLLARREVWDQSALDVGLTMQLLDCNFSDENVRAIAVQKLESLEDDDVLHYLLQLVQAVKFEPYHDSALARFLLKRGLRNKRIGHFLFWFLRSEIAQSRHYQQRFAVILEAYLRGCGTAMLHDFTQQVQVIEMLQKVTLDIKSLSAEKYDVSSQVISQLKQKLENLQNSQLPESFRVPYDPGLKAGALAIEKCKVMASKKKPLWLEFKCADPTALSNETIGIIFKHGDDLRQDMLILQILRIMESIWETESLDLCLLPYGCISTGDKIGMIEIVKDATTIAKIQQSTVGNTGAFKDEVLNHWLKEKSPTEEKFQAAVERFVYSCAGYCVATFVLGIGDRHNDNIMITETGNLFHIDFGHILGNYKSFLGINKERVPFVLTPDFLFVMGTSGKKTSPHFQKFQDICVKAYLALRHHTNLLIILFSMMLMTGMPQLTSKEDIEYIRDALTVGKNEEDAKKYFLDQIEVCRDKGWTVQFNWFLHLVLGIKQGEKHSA

With `COC[C@H]1OC(=O)/C(=C/N(C)CCCN(C)C)C2=C(O)C(=O)C3=C([C@H](OC(C)=O)C[C@@]4(C)C3CC[C@@H]4O)[C@]21C` (stereo partly specified), the IC50 (in general, the concentration that inhibits the measured activity by half) was 6.4 nM against PIK3CA (human) [1] and 8 nM against PIK3CG (human).

As to `O=C1Nc2ccc3ncsc3c2C1=NNc1ccc(S(=O)(=O)O)cc1`, at CDK2 (human), the IC50 was found to be 540 nM.

As to `CC12CC(C(=O)O)CC(C)(C1)C(=O)N(Cc1cccc(-n3nc(C(C)(C)C)cc3NC(=O)Nc3cccc4ccccc34)c1)C2=O` (stereo unspecified), the IC50 is 2150 nM at MAPK14 [2] and 953 nM against MAPK14 [3].

As to `CNC(=O)N1CCN(Cc2ccnc(Nc3ncc(C#N)s3)c2C)CC1`, the half-maximal inhibitory concentration (IC50) is 13700 nM against CDK2 [4] and greater than 19200 nM at EGFR [5].

In turn, `COc1cc2ncnc(Nc3cccc(Cl)c3F)c2cc1OC1CCN(CC(=O)NCCN2CCCC2)CC1` displayed a half-maximal inhibitory concentration (IC50) on EGFR (human) [6] of 17 nM.

Turning to `Cc1nc(N)ncc1-c1nc(N2CCOCC2)c2sc(C(C)(C)O)cc2n1`, the IC50 in test [7] came to 280 nM.

As to `CN(C)c1nc2c(Br)c(Br)c(Br)c(Br)c2[nH]1`, the inhibition (in general, the change of the read-out against control, counted positive when it falls) against MAPK14 [8] was determined as 15%; on ROCK2 it was 31%.

`OCc1ccc(-c2cc3ncnc(Nc4ccc(OCc5cccc(F)c5)c(Cl)c4)c3s2)o1` gave a concentration for half-maximal inhibition (IC50) against EGFR (human) [9] of 100 nM.

Consider `CC(=O)NCc1ccc(Nc2nccc(-c3sc(=O)n(C)c3C)n2)cc1`, for which the Ki (as a rule, a measure of affinity in units of concentration, obtained from inhibition or displacement) at CDK2 [4] was 34 nM; at CDK2 [10], 220 nM.

Regarding `O=C1NC(=O)c2c1c1c3ccccc3[nH]c1c1[nH]c3cc(O)c(O)cc3c21`, the inhibition at EGFR [11] lay within 50 to 80%.

As for `CN1CC2CCC1CC2Nc1cc2c(ccc(=O)n2-c2c(Cl)cccc2Cl)c(-c2ccccc2Cl)n1` (stereo unspecified), the IC50 was 0.4 nM on MAPK14 [8] and 24 nM at MAPK14 [12].

`COC(=O)Nc1ccc(Nc2ncnc3cc(OC)c(OC)cc23)cc1` yielded an IC50 on EGFR (human) [13] of 6900 nM.

With `Nc1nc(N)c2c(n1)[nH]c1cccc(Sc3ccccc3)c12`, the IC50 against EGFR (human) [14] is 49200 nM. Besides, the EC50 (usually the midpoint of the concentration-response curve) on PIK3CA (human) [15] came out at 21600 nM.

`COc1cc2c(cc1OC)Oc1ncnc(Oc3cccc(Br)c3)c1N(C)C2` registered an IC50 on EGFR (human) [16] of 4600 nM.

Take `O=S(=O)(CCNCc1ccc(-c2ccc3ncnc(Nc4ccc(OCc5cccc(F)c5)c(Cl)c4)c3c2)o1)c1ccccn1`: the IC50 at EGFR (human) [17] worked out at 19 nM; at EGFR (human) [18], 1550 nM.

In turn, `CNC(=O)CN1CCC(Oc2cc3c(Nc4ccc(F)c(Cl)c4F)ncnc3cc2OC)CC1` had a concentration for half-maximal inhibition (IC50) against EGFR (human) [6] of 9 nM.

In the case of `Cc1ccc(Sc2cccc3[nH]c4nc(N)nc(N)c4c23)cc1`, the IC50 on EGFR (human) [14] was 14100 nM. The same molecule registered an EC50 at PIK3CA (human) [15] of 12200 nM.

Molecule `C#Cc1cccc(Nc2c([N+](=O)[O-])cnc3cc(OCc4ccccc4)c(OC)cc23)c1` displayed an IC50 against EGFR (human) [19] of 490 nM.

`CN1CCC(Oc2cccc3ncnc(Nc4ccc(OCc5ccccn5)c(Cl)c4)c23)CC1` showed an IC50 at EGFR [20] of 110 nM.

For `Fc1ccc(-c2nc[nH]c2-c2ccncc2)cc1`, the concentration for half-maximal inhibition (IC50) on MAPK14 [21] and on MAPK14 [22] was greater than 100000 nM in each case.

As for `CONC(=O)c1ccc(C)c(Nc2nc(NCC3CCCC(CN)C3)nc(NC3CCCCC3)n2)c1` (stereo unspecified), the concentration for half-maximal inhibition (IC50) at MAPK14 (human) [23] and at MAPK14 (human) [24] was 2 nM in each case.

As to `COc1ccc(C#CC(C)(C)N)cc1-c1n[nH]c2nc(Nc3ccc(F)cc3F)ccc12`, the inhibition at EGFR [25] is -43%.

With `Brc1c(Br)c(Br)c2[nH]nnc2c1Br`, the inhibition was -7% at MAPK14 [8] and 9% at ROCK2.

Molecule `N#Cc1cnc2ccc(NCc3c[nH]cn3)cc2c1Nc1ccc(F)c(Cl)c1` displayed an IC50 on EGFR (human) [26] of 30 nM.

`CNC(=O)C1(N(C)Cc2cc3c(Nc4cccc(Cl)c4F)ncnc3cc2OC)CCN(C)CC1` displayed a 50% inhibitory concentration (IC50) on EGFR (human) [27] of 36 nM.

`CS(=O)(=O)CCNCc1ccc(-c2ccc3ncnc(Nc4ccc(OCc5cccc(F)c5)c(Br)c4)c3c2)o1` gave a half-inhibitory concentration (IC50) against EGFR (human) [28] of less than 100 nM.

In the case of `COC1=CC(=O)C(Nc2ncnc3cc(OCC4CCN(C)CC4)c(OC)cc23)=CC1=O`, the half-maximal inhibitory concentration (IC50) against EGFR [29] is 2200 to 200000 nM.

As to `Cc1c(-c2ccnc(Nc3cccc(CCNS(C)(=O)=O)c3)n2)sc(=O)n1C`, the inhibitory constant (Ki) on CDK2 [4] was found to be 39 nM; on CDK2 [10], 42 nM.
